# Measurements reported in patent publication US9376425B2, “Heterocyclic compounds as MDM2 inhibitors for the treatment of cancer” (AMGEN INC., priority 2011, dated 2016).
# Target: T1, human MDM2 (GST-hMDM2 1-188), interaction with biotinylated-p53 (1-83) (Homo sapiens, UniProt Q00987)
# T1 construct: Amino acid residues 1-188 of human MDM2 were expressed; made in house; host or cells: Escherichia coli
# Assay: improved HTRF assay (HTRF2 assay), inhibition of HDM2-p53 interaction
# Type: binding
# Details: 0.2 nM GST-hMDM2, 0.5 nM biotinylated-p53, 100 mM KF
# Summary of the method: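 Time-resolved fluorescence (HTRF) read after >4 h equilibration with SA-XLent/anti-GST cryptate/KF detection reagents. Reaction: compound plus GST-hMDM2 for 20 min at room temperature, then E. coli-expressed biotinylated p53 residues 1-83 for 60 min, 2% DMSO final. Inhibition expressed versus nutlin-3.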
# T1 sequence (Q00987 1-188): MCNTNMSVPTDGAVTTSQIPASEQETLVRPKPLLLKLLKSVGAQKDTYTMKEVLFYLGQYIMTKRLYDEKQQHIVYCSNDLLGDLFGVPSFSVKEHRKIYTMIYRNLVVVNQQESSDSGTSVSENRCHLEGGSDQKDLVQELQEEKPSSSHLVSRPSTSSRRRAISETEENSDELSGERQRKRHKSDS
row,SMILES,IC50
1,"O=C(O)C[C@@]1(CC(F)(F)F)O[C@H](c2cccc(Cl)c2)[C@@H](c2ccc(Cl)cc2)N([C@H](CN(c2ccccc2F)S(=O)(=O)C2CC2)C2CC2)C1=O (single isomer, unassigned) [Example 333, 2-((2S,5R,6R)-6-(3-Chlorophenyl)-5-(4-chlorophenyl)-4-((S)-1-cyclopropyl-2-(N-(2-fluorophenyl)cyclopropanesulfonamido)ethyl)-3-oxo-2-(2,2,2-trifluoroethyl)morpholin-2-yl)acetic acid or 2-((2R,5R,6R)-6-(3-chlorophenyl)-5-(4-chlorophenyl)-4-((S)-1-cyclopropyl-2-(N-(2-fluorophenyl)cyclopropanesulfonamido)ethyl)-3-oxo-2-(2,2,2-trifluoroethyl)morpholin-2-yl)acetic acid]",199 nM
2,"CC(C)(C)S(=O)(=O)C[C@H](C1CC1)N1C(=O)[C@@](C)(CC(=O)O)O[C@H](c2cccc(Cl)c2)[C@H]1c1ccc(Cl)cc1 (single isomer, unassigned) [Example 334, 2-((2R,5R,6R)-4-((S)-2-(tert-Butylsulfonyl)-1-cyclopropylethyl)-6-(3-chlorophenyl)-5-(4-chlorophenyl)-2-methyl-3-oxomorpholin-2-yl)acetic acid or 2-((2S,5R,6R)-4-((S)-2-(tert-butylsulfonyl)-1-cyclopropylethyl)-6-(3-chlorophenyl)-5-(4-chlorophenyl)-2-methyl-3-oxomorpholin-2-yl)acetic acid]",< 1 nM
3,"CC(C)(C)S(=O)(=O)C[C@H](C1CC1)N1C(=O)[C@@](C)(CC(=O)O)O[C@H](c2cccc(Cl)c2)[C@H]1c1ccc(Cl)cc1 (single isomer, unassigned) [Example 335, 2-((2R,5R,6R)-4-((S)-2-(tert-Butylsulfonyl)-1-cyclopropylethyl)-6-(3-chlorophenyl)-5-(4-chlorophenyl)-2-methyl-3-oxomorpholin-2-yl)acetic acid or 2-((2S,5R,6R)-4-((S)-2-(tert-butylsulfonyl)-1-cyclopropylethyl)-6-(3-chlorophenyl)-5-(4-chlorophenyl)-2-methyl-3-oxomorpholin-2-yl)acetic acid]",3 nM
4,"C[C@H]1CCCN1S(=O)(=O)C[C@H](C1CC1)N1C(=O)[C@@](C)(CC(=O)O)O[C@H](c2cccc(Cl)c2)[C@H]1c1ccc(Cl)cc1 (single isomer, unassigned) [Example 336, 2-((2R,5R,6R)-6-(3-Chlorophenyl)-5-(4-chlorophenyl)-4-((S)-1-cyclopropyl-2-(((S)-2-methylpyrrolidin-1-yl)sulfonyl)ethyl)-2-methyl-3-oxomorpholin-2-yl)acetic acid or 2-((2S,5R,6R)-6-(3-chlorophenyl)-5-(4-chlorophenyl)-4-((S)-1-cyclopropyl-2-(((S)-2-methylpyrrolidin-1-yl)sulfonyl)ethyl)-2-methyl-3-oxomorpholin-2-yl)acetic acid]",< 1 nM
5,"C[C@H]1CCCN1S(=O)(=O)C[C@H](C1CC1)N1C(=O)[C@@](C)(CC(=O)O)O[C@H](c2cccc(Cl)c2)[C@H]1c1ccc(Cl)cc1 (single isomer, unassigned) [Example 337, 2-((2R,5R,6R)-6-(3-Chlorophenyl)-5-(4-chlorophenyl)-4-((S)-1-cyclopropyl-2-(((S)-2-methylpyrrolidin-1-yl)sulfonyl)ethyl)-2-methyl-3-oxomorpholin-2-yl)acetic acid or 2-((2S,5R,6R)-6-(3-chlorophenyl)-5-(4-chlorophenyl)-4-((S)-1-cyclopropyl-2-(((S)-2-methylpyrrolidin-1-yl)sulfonyl)ethyl)-2-methyl-3-oxomorpholin-2-yl)acetic acid]",50 nM
6,"CC(C)(C)S(=O)(=O)C[C@H](CC(F)(F)F)N1C(=O)[C@@](C)(CC(=O)O)O[C@H](c2cccc(Cl)c2)[C@H]1c1ccc(Cl)cc1 (single isomer, unassigned) [Example 340, 2-((2R,5R,6R)-4-((S)-1-(tert-Butylsulfonyl)-4,4,4-trifluorobutan-2-yl)-6-(3-chlorophenyl)-5-(4-chlorophenyl)-2-methyl-3-oxomorpholin-2-yl)acetic acid or 2-((2S,5R,6R)-4-((S)-1-(tert-butylsulfonyl)-4,4,4-trifluorobutan-2-yl)-6-(3-chlorophenyl)-5-(4-chlorophenyl)-2-methyl-3-oxomorpholin-2-yl)acetic acid]",28 nM
7,"CC(C)(C)S(=O)(=O)C[C@H](CC(F)(F)F)N1C(=O)[C@@](C)(CC(=O)O)O[C@H](c2cccc(Cl)c2)[C@H]1c1ccc(Cl)cc1 (single isomer, unassigned) [Example 341, 2-((2R,5R,6R)-4-((S)-1-(tert-Butylsulfonyl)-4,4,4-trifluorobutan-2-yl)-6-(3-chlorophenyl)-5-(4-chlorophenyl)-2-methyl-3-oxomorpholin-2-yl)acetic acid or 2-((2S,5R,6R)-4-((S)-1-(tert-butylsulfonyl)-4,4,4-trifluorobutan-2-yl)-6-(3-chlorophenyl)-5-(4-chlorophenyl)-2-methyl-3-oxomorpholin-2-yl)acetic acid]",< 1 nM
8,"CC[C@]1(CC(=O)O)O[C@H](c2cccc(Cl)c2)[C@@H](c2ccc(Cl)cc2)N([C@@H](CC(F)(F)F)CS(=O)(=O)C(C)(C)C)C1=O (single isomer, unassigned) [Example 342, 2-((2R,5R,6R)-4-((S)-1-(tert-Butylsulfonyl)-4,4,4-trifluorobutan-2-yl)-6-(3-chlorophenyl)-5-(4-chlorophenyl)-2-ethyl-3-oxomorpholin-2-yl)acetic acid or 2-((2S,5R,6R)-4-((S)-1-(tert-butylsulfonyl)-4,4,4-trifluorobutan-2-yl)-6-(3-chlorophenyl)-5-(4-chlorophenyl)-2-ethyl-3-oxomorpholin-2-yl)acetic acid]",104 nM
9,"CC[C@]1(CC(=O)O)O[C@H](c2cccc(Cl)c2)[C@@H](c2ccc(Cl)cc2)N([C@@H](CC(F)(F)F)CS(=O)(=O)C(C)(C)C)C1=O (single isomer, unassigned) [Example 343, 2-((2R,5R,6R)-4-((S)-1-(tert-Butylsulfonyl)-4,4,4-trifluorobutan-2-yl)-6-(3-chlorophenyl)-5-(4-chlorophenyl)-2-ethyl-3-oxomorpholin-2-yl)acetic acid or 2-((2S,5R,6R)-4-((S)-1-(tert-butylsulfonyl)-4,4,4-trifluorobutan-2-yl)-6-(3-chlorophenyl)-5-(4-chlorophenyl)-2-ethyl-3-oxomorpholin-2-yl)acetic acid]",1 nM
10,"CC(C)(C)S(=O)(=O)C[C@H](C1CC1)N1C(=O)[C@@H](CC(=O)NCC(F)(F)F)O[C@H](c2cccc(Cl)c2)[C@H]1c1ccc(Cl)cc1 (single isomer, unassigned) [Example 346, 2-((2R,5R,6R)-4-((S)-2-(tert-Butylsulfonyl)-1-cyclopropylethyl)-6-(3-chlorophenyl)-5-(4-chlorophenyl)-3-oxomorpholin-2-yl)-N-(2,2,2-trifluoroethyl)acetamide or 2-((2S,5R,6R)-4-((S)-2-(tert-butylsulfonyl)-1-cyclopropylethyl)-6-(3-chlorophenyl)-5-(4-chlorophenyl)-3-oxomorpholin-2-yl)-N-(2,2,2-trifluoroethyl)acetamide]",21 nM
11,"CC(C)(C)S(=O)(=O)C[C@H](C1CC1)N1C(=O)[C@@H](CC(=O)NCC(F)(F)F)O[C@H](c2cccc(Cl)c2)[C@H]1c1ccc(Cl)cc1 (single isomer, unassigned) [Example 347, 2-((2R,5R,6R)-4-((S)-2-(tert-Butylsulfonyl)-1-cyclopropylethyl)-6-(3-chlorophenyl)-5-(4-chlorophenyl)-3-oxomorpholin-2-yl)-N-(2,2,2-trifluoroethyl)acetamide or 2-((2S,5R,6R)-4-((S)-2-(tert-butylsulfonyl)-1-cyclopropylethyl)-6-(3-chlorophenyl)-5-(4-chlorophenyl)-3-oxomorpholin-2-yl)-N-(2,2,2-trifluoroethyl)acetamide]",4 nM
12,"CC(C)(C)S(=O)(=O)C[C@H](C1CC1)N1C(=O)[C@@H](CC(=O)NCC#N)O[C@H](c2cccc(Cl)c2)[C@H]1c1ccc(Cl)cc1 (single isomer, unassigned) [Example 348, 2-((2R,5R,6R)-4-((S)-2-(tert-Butylsulfonyl)-1-cyclopropylethyl)-6-(3-chlorophenyl)-5-(4-chlorophenyl)-3-oxomorpholin-2-yl)-N-(cyanomethyl)acetamide or 2-((2S,5R,6R)-4-((S)-2-(tert-butylsulfonyl)-1-cyclopropylethyl)-6-(3-chlorophenyl)-5-(4-chlorophenyl)-3-oxomorpholin-2-yl)-N-(cyanomethyl)acetamide]",5 nM
13,"CC(C)(C)S(=O)(=O)C[C@H](C1CC1)N1C(=O)[C@@H](CC(=O)NCC#N)O[C@H](c2cccc(Cl)c2)[C@H]1c1ccc(Cl)cc1 (single isomer, unassigned) [Example 349, 2-((2R,5R,6R)-4-((S)-2-(tert-Butylsulfonyl)-1-cyclopropylethyl)-6-(3-chlorophenyl)-5-(4-chlorophenyl)-3-oxomorpholin-2-yl)-N-(cyanomethyl)acetamide or 2-((2S,5R,6R)-4-((S)-2-(tert-butylsulfonyl)-1-cyclopropylethyl)-6-(3-chlorophenyl)-5-(4-chlorophenyl)-3-oxomorpholin-2-yl)-N-(cyanomethyl)acetamide]",1 nM
14,"CC(C)(C)S(=O)(=O)C[C@H](C1CC1)N1C(=O)[C@@H](CC(=O)Nc2ccccc2)O[C@H](c2cccc(Cl)c2)[C@H]1c1ccc(Cl)cc1 (single isomer, unassigned) [Example 350, 2-((2R,5R,6R)-4-((S)-2-(tert-Butylsulfonyl)-1-cyclopropylethyl)-6-(3-chlorophenyl)-5-(4-chlorophenyl)-3-oxomorpholin-2-yl)-N-phenylacetamide or 2-42S,5R,6R)-4-((S)-2-(tert-butylsulfonyl)-1-cyclopropylethyl)-6-(3-chlorophenyl)-5-(4-chlorophenyl)-3-oxomorpholin-2-yl)-N-phenylacetamide]",16 nM
